According to US6930088B2, “Conformationally constrained backbone cyclized somatostatin analogs” (Peptor Ltd., priority 1998, dated 2005):
One block for each molecule: values may come before it. *1 amine or outer side, *2 acyl side, *3 side chain or, on linkers, in order; H or OH if unused. Where a SMILES comes first, the peptide text is derived from it. Bridges are numbered along the chain shown (N, C = ends). Where no end group is shown, it is not given here. [ ]: non-standard residue; d: D form. N(2-aminoethyl)Phe = O=C([C@H](Cc1ccccc1)N(CCN[*:3])[*:1])[*:2]; N(CH2CH2CO)Gly = O=C(CN(CCC(=O)[*:3])[*:1])[*:2]; 2Nal = N[C@@H](Cc1ccc2ccccc2c1)C(=O)O; Gly(S2) = not defined here; Phe(C1) = not defined here; Mpa = O=C(O)CCS

Assays:
[1] = Metabolic bio-stability against degradation by enzyme mixtures; format: in vitro ADME; settings: in words; renal homogenate, rat liver homogenate and human serum
[2] = In vitro biostability in renal homogenate (HPLC); settings: for remaining at 1 h / remaining at 3 h / remaining at 24 h: kidney or brush border membranes
Description: The assay was based on HPLC determination of peptide degradation as a function of time in renal homogenate at 37° C.

Opiate receptors = assay: NovaScreen nonspecific binding, Opiate receptors; settings: tested at 100 nM; FIG. 2
Source text: NovaScreen (Hanover, Md.) performed an assessment for nonspecific binding to various G-protein coupled receptor families. Binding studies to Neurokinin, Opiate and Muscarinic receptors were based on a comparison between the native hormone Somatostatin, Ocreotide and PTR 3173.

[3] = rat, in vivo, iv, 6 mg/kg
Description: PTR 3173 was tested in various species for its initial safety properties. Under the European Pharmacopoeia requirements for safety testing, it was declared a safe drug candidate at this stage of development.

SSTR-5 = target: T1, SSTR-5 (Homo sapiens, UniProt P35346); assay: Inhibition of 125I-Tyr11-SRIF binding to membrane preparations expressing SSTR-5; settings: SST-R5, read-out: Percent inhibition of SRIF-14 binding; for inhibition at 1 µM: 10^−6M; for inhibition at 0.1 µM: 10^−7M; for inhibition at 0.01 µM: 10^−8M
T1 construct: expressed in transfected cells
T1 sequence (P35346 whole entry): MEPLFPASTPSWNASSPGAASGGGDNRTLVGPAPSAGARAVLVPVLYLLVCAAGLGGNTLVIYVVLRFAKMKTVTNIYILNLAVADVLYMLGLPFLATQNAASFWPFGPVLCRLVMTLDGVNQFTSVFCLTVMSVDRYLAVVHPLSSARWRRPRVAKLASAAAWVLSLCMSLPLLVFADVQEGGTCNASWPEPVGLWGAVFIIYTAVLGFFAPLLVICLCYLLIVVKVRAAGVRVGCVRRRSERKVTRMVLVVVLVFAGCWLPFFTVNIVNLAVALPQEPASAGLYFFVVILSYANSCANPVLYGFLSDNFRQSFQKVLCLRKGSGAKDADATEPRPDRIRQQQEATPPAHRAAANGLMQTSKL
Description: (§1) The receptor preparations used for these tests were either from the cloned human receptors selectively and stably expressed in Chinese Hamster Ovary (CHO) cells or from cell lines naturally expressing the SSTRs. […] The binding reactions were filtered, the filters were washed and the bound radioactivity was counted in gamma counter. Non specific binding was defined as the radioactivity remaining bound in the presence of 1 μM unlabeled SRIF-14.
(§2) In order to validate positive signals of the binding tests, and to eliminate non-specific signals, samples of irrelevant peptides, such as GnRH, that were synthesized and handled using the same procedures, were tested in the same assays as negative control samples. These samples had no binding activity in any of the assays. Results are shown below in Tables 5 and 6 and FIG. 1.

SSTR-3 = target: T2, SSTR-3 (Homo sapiens, UniProt P32745); assay: Inhibition of 125I-Tyr11-SRIF binding to membrane preparations expressing SSTR-3; settings: SST-R3, read-out: Percent inhibition of SRIF-14 binding; for inhibition at 1 µM: 10^−6M; for inhibition at 0.1 µM: 10^−7M; for inhibition at 0.01 µM: 10^−8M
T2 construct: expressed in transfected cells
T2 sequence (P32745 whole entry): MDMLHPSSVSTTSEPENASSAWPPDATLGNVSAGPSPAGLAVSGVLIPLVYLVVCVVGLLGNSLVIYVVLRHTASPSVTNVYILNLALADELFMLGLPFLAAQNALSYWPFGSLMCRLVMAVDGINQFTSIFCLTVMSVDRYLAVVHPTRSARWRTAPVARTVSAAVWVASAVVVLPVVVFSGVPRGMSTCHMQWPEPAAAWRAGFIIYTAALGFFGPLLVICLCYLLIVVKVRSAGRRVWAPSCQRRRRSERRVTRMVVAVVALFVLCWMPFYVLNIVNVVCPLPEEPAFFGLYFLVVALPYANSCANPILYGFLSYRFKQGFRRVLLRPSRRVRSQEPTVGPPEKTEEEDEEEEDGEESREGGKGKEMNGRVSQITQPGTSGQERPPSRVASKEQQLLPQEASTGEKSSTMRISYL
Description: as §1, with “The somatostatin analogs were tested for their potency in inhibition of the binding of ^125I-Tyr^11-SRIF (based on the method described by Raynor et. al., Molecular Pharmacology, 1993, 43, 838-844) to membrane preparations expressing the transmembranal somatostatin receptors (SSTR-1, 2, 3, 4 or 5). The receptor” for “The receptor”
as §2

[4] = target: T3, cloned human somatostatin receptor 5 (human, UniProt P35346 1-364); assay: IC50 for SST-R5 (subtype numbers stand in r6)
T3 construct: whole, on cells; Tested as cell membrane preparations; also called SSTR-5; SSTR5
T3 sequence (P35346 whole entry): as the sequence (P35346 whole entry) above

[5] = target: T3, cloned human somatostatin receptor 5; assay: 125I-Tyr11-SRIF displacement on SSTR membrane preparations, negative control peptide
Source text: as §1, with “counter.” for “counter. Non specific binding was defined as the radioactivity remaining bound in the presence of 1 μM unlabeled SRIF-14.”
as §2

[6] = target: T4, cloned human somatostatin receptor 4 (human, UniProt P31391 1-388); assay: as above
T4 construct: whole, on cells; Tested as cell membrane preparations; also called SSTR-4; SSTR-R4
T4 sequence (P31391 whole entry): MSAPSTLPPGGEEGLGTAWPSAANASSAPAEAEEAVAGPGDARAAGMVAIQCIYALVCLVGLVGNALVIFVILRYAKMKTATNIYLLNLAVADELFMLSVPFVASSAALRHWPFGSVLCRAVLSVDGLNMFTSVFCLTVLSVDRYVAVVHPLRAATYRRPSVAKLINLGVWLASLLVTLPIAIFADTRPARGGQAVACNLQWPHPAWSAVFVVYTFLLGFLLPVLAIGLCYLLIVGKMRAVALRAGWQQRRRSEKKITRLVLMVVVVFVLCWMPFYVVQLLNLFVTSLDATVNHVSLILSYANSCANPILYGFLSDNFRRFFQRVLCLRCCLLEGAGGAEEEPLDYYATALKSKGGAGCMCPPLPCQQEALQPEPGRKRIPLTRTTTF
Source text: as §1, with “counter.” for “counter. Non specific binding was defined as the radioactivity remaining bound in the presence of 1 μM unlabeled SRIF-14.”
as §2

[7] = target: T5, cloned human somatostatin receptor 3 (human, UniProt P32745 1-418); assay: as above
T5 construct: whole, on cells; Tested as cell membrane preparations; also called SSTR-3; SSTR3
T5 sequence (P32745 whole entry): as the sequence (P32745 whole entry) above
Source text: as §1, with “counter.” for “counter. Non specific binding was defined as the radioactivity remaining bound in the presence of 1 μM unlabeled SRIF-14.”
as §2

[8] = target: T6, cloned human somatostatin receptor 2 (human, UniProt P30874 1-369); assay: as above
T6 construct: whole, on cells; Tested as cell membrane preparations; also called SSTR-2; SSTR2
T6 sequence (P30874 whole entry): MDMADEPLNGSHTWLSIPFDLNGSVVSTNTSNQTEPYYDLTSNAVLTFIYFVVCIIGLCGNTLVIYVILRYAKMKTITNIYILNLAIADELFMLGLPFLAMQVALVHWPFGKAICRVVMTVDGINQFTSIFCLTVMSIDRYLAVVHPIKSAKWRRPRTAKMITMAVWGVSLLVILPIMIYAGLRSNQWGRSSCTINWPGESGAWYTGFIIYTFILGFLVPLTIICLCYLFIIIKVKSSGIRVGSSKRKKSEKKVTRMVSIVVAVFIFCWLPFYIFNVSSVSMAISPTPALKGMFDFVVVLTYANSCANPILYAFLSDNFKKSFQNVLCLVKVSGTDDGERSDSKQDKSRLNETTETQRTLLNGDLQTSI
Source text: as §1, with “counter.” for “counter. Non specific binding was defined as the radioactivity remaining bound in the presence of 1 μM unlabeled SRIF-14.”
as §2

[9] = target: T7, cloned human somatostatin receptor 1 (human, UniProt P30872 1-391); assay: as above
T7 construct: whole, on cells; Tested as cell membrane preparations; also called SSTR-1; SSTR1
T7 sequence (P30872 whole entry): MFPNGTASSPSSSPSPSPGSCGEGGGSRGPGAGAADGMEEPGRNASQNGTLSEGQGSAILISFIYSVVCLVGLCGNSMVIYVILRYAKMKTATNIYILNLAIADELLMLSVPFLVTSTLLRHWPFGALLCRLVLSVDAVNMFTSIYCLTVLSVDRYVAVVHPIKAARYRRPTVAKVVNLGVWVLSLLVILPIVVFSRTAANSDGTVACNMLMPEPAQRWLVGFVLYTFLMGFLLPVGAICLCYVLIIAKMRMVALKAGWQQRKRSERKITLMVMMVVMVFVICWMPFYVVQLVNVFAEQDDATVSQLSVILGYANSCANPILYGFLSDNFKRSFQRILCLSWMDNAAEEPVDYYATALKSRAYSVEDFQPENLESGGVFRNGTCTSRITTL
Source text: as §1, with “counter.” for “counter. Non specific binding was defined as the radioactivity remaining bound in the presence of 1 μM unlabeled SRIF-14.”
as §2

[10] = target: T7, cloned human somatostatin receptor 1; assay: inhibition of SRIF binding, cloned human SSTR-1; head says nM, values evidently molar
Source text: as §1, with “counter.” for “counter. Non specific binding was defined as the radioactivity remaining bound in the presence of 1 μM unlabeled SRIF-14.”

[11] = target: T5, cloned human somatostatin receptor 3; assay: inhibition of SRIF binding, cloned human SSTR-3; head says nM, values evidently molar
Source text: as §1, with “counter.” for “counter. Non specific binding was defined as the radioactivity remaining bound in the presence of 1 μM unlabeled SRIF-14.”

[12] = target: T6, cloned human somatostatin receptor 2; assay: inhibition of SRIF binding, cloned human SSTR-2; head says nM, values evidently molar
Source text: as §1, with “counter.” for “counter. Non specific binding was defined as the radioactivity remaining bound in the presence of 1 μM unlabeled SRIF-14.”

[13] = target: T3, cloned human somatostatin receptor 5; assay: inhibition of SRIF binding, cloned human SSTR-5; head says nM, values evidently molar
Source text: as §1, with “counter.” for “counter. Non specific binding was defined as the radioactivity remaining bound in the presence of 1 μM unlabeled SRIF-14.”

[14] = target: T3, cloned human somatostatin receptor 5; assay: 125I-Tyr11-SRIF displacement, membranes, cloned human SST-R5
[15] = target: T5, cloned human somatostatin receptor 3; assay: 125I-Tyr11-SRIF displacement, membranes, cloned human SST-R3
Source text: as §1, with “counter.” for “counter. Non specific binding was defined as the radioactivity remaining bound in the presence of 1 μM unlabeled SRIF-14.”

[16] = target: T7, cloned human somatostatin receptor 1; assay: IC50 for SST-R1 (subtype numbers stand in r6)
[17] = target: T5, cloned human somatostatin receptor 3; assay: IC50 for SST-R3 (subtype numbers stand in r6)

Molecule: C[C@@H](O)[C@@H]1NC(=O)[C@H](CCCCN)NC(=O)[C@@H](Cc2c[nH]c3ccccc23)NC(=O)[C@H](Cc2ccccc2)NC(=O)[C@@H]2CSSC[C@H](NC1=O)C(=O)N([C@@H](Cc1ccccc1)C(N)=O)CCCNC(=O)CCCN[C@@H](Cc1ccccc1)C(=O)N2 [PTR 3205, Phe(C3)-Cys*-Phe-(D)Trp-Lys-Thr-Cys*-Phe(N3)-X]
metabolic bio-stability against degradation by enzymes [1]: considerable metabolic bio-stability against degradation by enzymes

Molecule: C[C@H](N)C(=O)NCC(=O)N[C@H]1CSSC[C@@H](C(=O)O)NC(=O)[C@H](CO)NC(=O)[C@H]([C@@H](C)O)NC(=O)[C@H](Cc2ccccc2)NC(=O)[C@H]([C@@H](C)O)NC(=O)[C@H](CCCCN)NC(=O)[C@H](Cc2c[nH]c3ccccc23)NC(=O)[C@H](Cc2ccccc2)NC(=O)[C@H](Cc2ccccc2)NC(=O)[C@H](CC(N)=O)NC(=O)[C@H](CCCCN)NC1=O [SRIF, H-Ala^1-Gly^2-Cys^3-Lys^4-Asn^5-Phe^6-Phe^7-Trp^8-Lys^9-Thr^10-Phe^11-Thr^12-Ser^13-Cys^14-OH, reference compound]
Percent of intact molecule after incubation in renal homogenate ([2]; Time 0 hrs, 37° C.): 100%
remaining at 1 h [2]: 5%
remaining at 3 h [2]: 0%
remaining at 24 h [2]: 0%
binding to Opiate receptors (Opiate receptors): did not bind

Molecule: NCCCC[C@@H]1NC(=O)[C@@H](Cc2c[nH]c3ccccc23)NC(=O)[C@H](Cc2ccc(O)cc2)NC(=O)[C@H](Cc2ccccc2)NCCNC(=O)CCN(CC(N)=O)C(=O)[C@H](Cc2ccc3ccccc3c2)NC(=O)[C@H](CO)NC1=O [PTR 3201, Phe(N2)-Tyr-(D)Trp-Lys-Ser-2Nal-Gly(C2)-X] (H-[N(2-aminoethyl)Phe]Y[dW]KS[2Nal][N(CH2CH2CO)Gly]-NH2; lactam 1-7; N-terminus and C-terminus assumed)
metabolic bio-stability against degradation by enzymes [1]: considerable metabolic bio-stability against degradation by enzymes

Molecule: NCCCC[C@@H]1NC(=O)[C@@H](Cc2c[nH]c3ccccc23)NC(=O)[C@H](Cc2ccccc2)NC(=O)[C@H](Cc2ccccc2)NC(=O)[C@H](Cc2ccccc2)NCC(=O)NCCN([C@@H](Cc2ccccc2)C(N)=O)C1=O [PTR 3113, Phe(C1)-Phe-Phe-(D)Trp-Lys-Phe(N2)-X]
remaining at 1 h [2]: 100%
remaining at 3 h [2]: 100%
remaining at 24 h [2]: 100%
safety [3]: safe
inhibition at 1 µM (SSTR-5): 86%
inhibition at 0.1 µM (SSTR-5): 50%
inhibition at 0.01 µM (SSTR-5): 0%
inhibition at 1 µM (SSTR-3): 94%
inhibition at 0.1 µM (SSTR-3): 65%
inhibition at 0.01 µM (SSTR-3): 16%

Molecule: NCCCC[C@H]1NC(=O)[C@@H](Cc2c[nH]c3ccccc23)NC(=O)[C@H](Cc2ccccc2)NC(=O)[C@H](Cc2ccccc2)NC(=O)[C@H](Cc2ccccc2)NCC(=O)NCCN([C@@H](Cc2ccccc2)C(N)=O)C1=O [PTR 3123, Phe(C1)-Phe-Phe-(D)Trp-(D)Lys-Phe(N2)-X]
remaining at 1 h [2]: 100%
remaining at 3 h [2]: 100%
remaining at 24 h [2]: 100%
safety [3]: safe
inhibition at 1 µM (SSTR-5): 0%
inhibition at 0.1 µM (SSTR-5): 0%
inhibition at 0.01 µM (SSTR-5): 0%
inhibition at 1 µM (SSTR-3): 84%
inhibition at 0.1 µM (SSTR-3): 41%
inhibition at 0.01 µM (SSTR-3): 24%

IC50 [4]: 1.3 nM
B1: PTR 3211 (peptide)
peptide: {mercaptoacetic acid}-FW[dW]KTF[Gly(S2)]-NH2
modifications: disulfide N-7; reading uncertain
notes: Cyclized between the SH moiety and the SH-type building unit

binding result [5]: no binding
binding result [6]: no binding
binding result [7]: no binding
binding result [8]: no binding
binding result [9]: no binding
B2: GnRH (peptide, UniProt P01148 24-33, looked up)
peptide: QHWSYGLRPG
modifications: not fully specified (residue 1, C-terminus)
notes: Negative control sample; also called irrelevant peptides, such as GnRH

IC50 [4]: 4 nM
IC50 [10]: 100 nM
IC50 [11]: 1 nM
IC50 [12]: 1 nM
IC50 [13]: 10 nM
B3: PTR 3207 (peptide)
peptide: [dF]CFW[dW]KTF[Gly(S2)]-NH2
modifications: disulfide 2-9; reading uncertain
notes: Backbone to side chain cyclized nonapeptide

IC50 [4]: 37 nM
B4: PTR 3219 (peptide)
peptide: FGFWWKTFG
modifications: (D)Phe at 1; Gly(S2) building units at 2 and 9 bridged to each other; (D)Trp at 5; C-terminal amide

IC50 [4]: 4.1 nM
Molecule: [Mpa]FW[dW]KTF[Gly(S2)]-NH2 (bridge N-8; reading uncertain) [PTR 3217]

percent inhibition of SRIF-14 binding at 10^-7M [14]: 0%
percent inhibition of SRIF-14 binding at 10^-8M [14]: 0%
percent inhibition of SRIF-14 binding at 10^-6M [15]: 84%
percent inhibition of SRIF-14 binding at 10^-7M [15]: 41%
percent inhibition of SRIF-14 binding at 10^-8M [15]: 24%
Molecule: [Phe(C1)]FF[dW][dK][N(2-aminoethyl)Phe] (lactam 1-6; reading uncertain, Backbone cyclized hexapeptide) [PTR 3123]

IC50 [16]: 1000 nM
IC50 [10]: 10 nM
IC50 [11]: 1 nM
IC50 [12]: 10 nM
IC50 [13]: 10 nM
IC50 [17]: 40 nM
B5: PTR 3197 (peptide)
peptide: CFW[dW]KTF[Gly(S2)]-NH2
modifications: disulfide 1-8; reading uncertain
notes: Backbone to side chain cyclized octapeptide
